From PubChem BioAssay (NCI)
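All cell lines were grown in 96-well plates and treated with compound for 48 hours. TGI: concentration producing complete growth inhibition.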

Experiments:
Test in all cases: NCI tumour cell line growth inhibition, 48 h
SF-539 CNS = tested on: SF-539 CNS
SNB-75 CNS = tested on: SNB-75 CNS
UACC-257 melanoma = tested on: UACC-257 melanoma
OVCAR-5 ovarian = tested on: OVCAR-5 ovarian
OVCAR-4 ovarian = tested on: OVCAR-4 ovarian
SNB-19 CNS = tested on: SNB-19 CNS
LOX IMVI melanoma = tested on: LOX IMVI melanoma
DMS 273 small cell lung = tested on: DMS 273 small cell lung
DLD-1 colon = tested on: DLD-1 colon
M14 melanoma = tested on: M14 melanoma
SNB-78 CNS = tested on: SNB-78 CNS
IGROV1 ovarian = tested on: IGROV1 ovarian
HCC-2998 colon = tested on: HCC-2998 colon
M19-MEL melanoma = tested on: M19-MEL melanoma
K-562 leukemia = tested on: K-562 leukemia
A498 renal = tested on: A498 renal
DMS 114 small cell lung = tested on: DMS 114 small cell lung
U251 CNS = tested on: U251 CNS
EKVX NSCLC = tested on: EKVX NSCLC
786-0 renal = tested on: 786-0 renal
LXFL 529 NSCLC = tested on: LXFL 529 NSCLC
SK-MEL-5 melanoma = tested on: SK-MEL-5 melanoma
SN12C renal = tested on: SN12C renal
NCI-H23 lung = tested on: NCI-H23 lung
HL-60(TB) leukemia = tested on: HL-60(TB) leukemia
TK-10 renal = tested on: TK-10 renal
HOP-18 NSCLC = tested on: HOP-18 NSCLC
A549 NSCLC = tested on: A549 NSCLC
COLO 205 colon = tested on: COLO 205 colon
HT29 colon = tested on: HT29 colon
UACC-62 melanoma = tested on: UACC-62 melanoma
SK-OV-3 ovarian = tested on: SK-OV-3 ovarian
SK-MEL-2 melanoma = tested on: SK-MEL-2 melanoma
NCI-H522 lung = tested on: NCI-H522 lung
SF-295 CNS = tested on: SF-295 CNS
SF-268 CNS = tested on: SF-268 CNS
HCT-15 colon = tested on: HCT-15 colon
CAKI-1 renal = tested on: CAKI-1 renal
RXF 393 renal = tested on: RXF 393 renal
ACHN renal = tested on: ACHN renal
KM12 colon = tested on: KM12 colon
UO-31 renal = tested on: UO-31 renal
OVCAR-3 ovarian = tested on: OVCAR-3 ovarian
SK-MEL-28 melanoma = tested on: SK-MEL-28 melanoma
HOP-62 NSCLC = tested on: HOP-62 NSCLC
CCRF-CEM leukemia = tested on: CCRF-CEM leukemia
RPMI-8226 leukemia = tested on: RPMI-8226 leukemia
NCI-H226 lung = tested on: NCI-H226 lung
MOLT-4 leukemia = tested on: MOLT-4 leukemia
SW-620 colon = tested on: SW-620 colon
MALME-3M melanoma = tested on: MALME-3M melanoma
NCI-H460 lung = tested on: NCI-H460 lung
HCT-116 colon = tested on: HCT-116 colon
SR leukemia = tested on: SR leukemia
KM20L2 colon = tested on: KM20L2 colon
XF 498 CNS = tested on: XF 498 CNS
HOP-92 NSCLC = tested on: HOP-92 NSCLC
OVCAR-8 ovarian = tested on: OVCAR-8 ovarian

Cc1cc(N(CCC#N)CCC#N)ccc1N=Nc1cc(Cl)ccc1Cl
TGI (SF-539 CNS): 19.4 µM | TGI (SNB-75 CNS): 28.3 µM | TGI (UACC-257 melanoma): 23.8 µM | TGI (OVCAR-5 ovarian): 27.4 µM | TGI (OVCAR-4 ovarian): 10.3 µM | TGI (SNB-19 CNS): 35.9 µM | TGI (LOX IMVI melanoma): 14.2 µM | TGI (DMS 273 small cell lung): 29.6 µM | TGI (DLD-1 colon): 26.1 µM | TGI (M14 melanoma): 11.4 µM | TGI (SNB-78 CNS): 22 µM | TGI (IGROV1 ovarian): 28.6 µM | TGI (HCC-2998 colon): 32.9 µM | TGI (M19-MEL melanoma): 26.6 µM | TGI (K-562 leukemia): 11.4 µM | TGI (A498 renal): 34.7 µM | TGI (DMS 114 small cell lung): 22.9 µM | TGI (U251 CNS): 33.5 µM | TGI (EKVX NSCLC): 26.5 µM | TGI (786-0 renal): 28.9 µM | TGI (LXFL 529 NSCLC): 3.35 µM | TGI (SK-MEL-5 melanoma): 30.3 µM | TGI (SN12C renal): 27.1 µM | TGI (NCI-H23 lung): 28.1 µM | TGI (HL-60(TB) leukemia): 16 µM | TGI (TK-10 renal): 23.8 µM | TGI (HOP-18 NSCLC): 22.1 µM | TGI (A549 NSCLC): 38.5 µM | TGI (COLO 205 colon): 4.97 µM | TGI (HT29 colon): 13.1 µM | TGI (UACC-62 melanoma): 21.7 µM | TGI (SK-OV-3 ovarian): 29.9 µM | TGI (SK-MEL-2 melanoma): 33.8 µM | TGI (NCI-H522 lung): 3.41 µM | TGI (SF-295 CNS): 34.9 µM | TGI (SF-268 CNS): 29.9 µM | TGI (HCT-15 colon): 6.58 µM | TGI (CAKI-1 renal): 9.68 µM | TGI (RXF 393 renal): 23 µM | TGI (ACHN renal): 25.4 µM | TGI (KM12 colon): 30 µM | TGI (UO-31 renal): 30.9 µM | TGI (OVCAR-3 ovarian): 18.2 µM | TGI (SK-MEL-28 melanoma): 21.1 µM | TGI (HOP-62 NSCLC): 35.3 µM | TGI (CCRF-CEM leukemia): 19.2 µM | TGI (RPMI-8226 leukemia): 34.7 µM | TGI (NCI-H226 lung): 25.2 µM | TGI (MOLT-4 leukemia): 34.9 µM | TGI (SW-620 colon): 6.5 µM | TGI (MALME-3M melanoma): 17.9 µM

COc1cc2c(oc(=O)c3c4occc4cc(OC)c23)c2cccc(OCc3ccccc3)c12
TGI (NCI-H460 lung): > 100 µM | TGI (SF-539 CNS): > 100 µM | TGI (SNB-75 CNS): > 100 µM | TGI (UACC-257 melanoma): > 100 µM | TGI (OVCAR-5 ovarian): > 100 µM | TGI (HCT-116 colon): > 100 µM | TGI (OVCAR-4 ovarian): > 100 µM | TGI (SNB-19 CNS): > 100 µM | TGI (LOX IMVI melanoma): > 100 µM | TGI (DMS 273 small cell lung): > 100 µM | TGI (DLD-1 colon): > 100 µM | TGI (M14 melanoma): > 100 µM | TGI (SNB-78 CNS): > 100 µM | TGI (SR leukemia): > 100 µM | TGI (IGROV1 ovarian): > 100 µM | TGI (HCC-2998 colon): > 100 µM | TGI (M19-MEL melanoma): > 100 µM | TGI (K-562 leukemia): > 100 µM | TGI (KM20L2 colon): > 100 µM | TGI (XF 498 CNS): > 100 µM | TGI (A498 renal): 83.4 µM | TGI (DMS 114 small cell lung): > 100 µM | TGI (U251 CNS): > 100 µM | TGI (EKVX NSCLC): > 100 µM | TGI (786-0 renal): > 100 µM | TGI (LXFL 529 NSCLC): > 100 µM | TGI (SK-MEL-5 melanoma): > 100 µM | TGI (SN12C renal): > 100 µM | TGI (NCI-H23 lung): > 100 µM | TGI (HL-60(TB) leukemia): > 100 µM | TGI (TK-10 renal): > 100 µM | TGI (HOP-92 NSCLC): > 100 µM | TGI (HOP-18 NSCLC): > 100 µM | TGI (A549 NSCLC): > 100 µM | TGI (COLO 205 colon): > 100 µM | TGI (HT29 colon): > 100 µM | TGI (UACC-62 melanoma): > 100 µM | TGI (SK-OV-3 ovarian): > 100 µM | TGI (SK-MEL-2 melanoma): > 100 µM | TGI (NCI-H522 lung): > 100 µM | TGI (SF-295 CNS): > 100 µM | TGI (SF-268 CNS): > 100 µM | TGI (HCT-15 colon): > 100 µM | TGI (CAKI-1 renal): > 100 µM | TGI (RXF 393 renal): > 100 µM | TGI (ACHN renal): > 100 µM | TGI (KM12 colon): > 100 µM | TGI (UO-31 renal): > 100 µM | TGI (OVCAR-8 ovarian): > 100 µM | TGI (OVCAR-3 ovarian): > 100 µM | TGI (SK-MEL-28 melanoma): > 100 µM | TGI (HOP-62 NSCLC): > 100 µM | TGI (CCRF-CEM leukemia): > 100 µM | TGI (RPMI-8226 leukemia): > 100 µM | TGI (NCI-H226 lung): > 100 µM | TGI (MOLT-4 leukemia): > 100 µM | TGI (SW-620 colon): > 100 µM | TGI (MALME-3M melanoma): > 100 µM
